Laboratory results as given in patent publication US20120214784A1, “SPIROPIPERIDINE COMPOUNDS AS ORL-1 RECEPTOR ANTAGONISTS” (ELI LILLY AND COMPANY, priority 2009, published 2012).

How the values were obtained:
[1] = system: NIH-Swiss mice; 129S6 wild type and nociceptin/ORL1 receptor knockout mice; experiment: Forced-swim test in mice (mFST); assay type: in vivo, mouse; settings: mFST
Excerpt: Forced-Swim Test in Mice (mFST) mFST is an established in vivo assay for antidepressant activity (Li et al. J Pharmacol Exp Ther. 319(1):254-9, 2006.). […] The mFST was used to evaluate potential antidepressant-like activity of novel nociceptin/ORL1 antagonists according to previously published methods (Li et al. J Pharmacol Exp Ther. 319(1):254-9, 2006.). Briefly, male NIH-Swiss mice (Harlan Sprague-Dawley, Indianapolis, Ind.) weighing between 25-30 g are used. Group housed animals are removed from the vivarium to the testing area in their own cages and allowed to adapt to the new environment for at least 1 hour before testing. Alternatively, male 129S6 wild type and nociceptin/ORL1 receptor knockout mice were used to confirm dependence of the response to compound was nociceptin/ORL1 receptor dependent. All compounds are prepared in 20% Captisol, 25 mM phosphate buffer, pH 2.0 on the day of use. Mice are placed in a cylinder (diameter: 10 cm; height: 25 cm) filled with 6 cm of water (22-25° C.) for 6 min. The duration of immobility during the last 4 min. of the 6 min. period of the test was scored. A mouse is recorded as immobile when floating motionless or making only those movements necessary to keep its head above water.

[2] = biological target: 5-HT1E (Homo sapiens, UniProt P28566); experiment: Radioligand binding selectivity
Chain of 5-HT1E (P28566 whole entry, species assumed): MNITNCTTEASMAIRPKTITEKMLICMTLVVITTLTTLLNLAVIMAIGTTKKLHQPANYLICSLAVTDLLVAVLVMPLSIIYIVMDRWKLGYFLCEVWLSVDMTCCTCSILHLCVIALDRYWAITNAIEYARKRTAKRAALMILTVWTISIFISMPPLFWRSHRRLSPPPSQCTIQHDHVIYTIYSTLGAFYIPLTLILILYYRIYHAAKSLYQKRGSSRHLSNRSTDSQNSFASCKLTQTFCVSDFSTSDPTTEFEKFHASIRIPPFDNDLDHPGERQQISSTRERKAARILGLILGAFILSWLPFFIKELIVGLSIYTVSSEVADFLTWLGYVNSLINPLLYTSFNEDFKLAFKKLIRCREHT

[3] = biological target: 5-HT1D (Homo sapiens, UniProt P28221); experiment: Radioligand binding selectivity
Chain of 5-HT1D (P28221 whole entry, species assumed): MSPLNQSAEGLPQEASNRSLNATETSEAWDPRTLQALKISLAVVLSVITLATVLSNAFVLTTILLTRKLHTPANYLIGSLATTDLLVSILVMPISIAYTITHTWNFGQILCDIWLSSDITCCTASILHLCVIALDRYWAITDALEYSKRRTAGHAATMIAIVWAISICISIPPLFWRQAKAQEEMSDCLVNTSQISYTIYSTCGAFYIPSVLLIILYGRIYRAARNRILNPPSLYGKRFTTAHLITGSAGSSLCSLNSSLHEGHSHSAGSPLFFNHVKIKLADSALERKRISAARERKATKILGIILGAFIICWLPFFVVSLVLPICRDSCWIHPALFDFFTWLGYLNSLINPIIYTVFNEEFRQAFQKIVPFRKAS

[4] = biological target: 5-HT2B (Homo sapiens, UniProt P41595); experiment: Radioligand binding selectivity
Chain of 5-HT2B (P41595 whole entry, species assumed): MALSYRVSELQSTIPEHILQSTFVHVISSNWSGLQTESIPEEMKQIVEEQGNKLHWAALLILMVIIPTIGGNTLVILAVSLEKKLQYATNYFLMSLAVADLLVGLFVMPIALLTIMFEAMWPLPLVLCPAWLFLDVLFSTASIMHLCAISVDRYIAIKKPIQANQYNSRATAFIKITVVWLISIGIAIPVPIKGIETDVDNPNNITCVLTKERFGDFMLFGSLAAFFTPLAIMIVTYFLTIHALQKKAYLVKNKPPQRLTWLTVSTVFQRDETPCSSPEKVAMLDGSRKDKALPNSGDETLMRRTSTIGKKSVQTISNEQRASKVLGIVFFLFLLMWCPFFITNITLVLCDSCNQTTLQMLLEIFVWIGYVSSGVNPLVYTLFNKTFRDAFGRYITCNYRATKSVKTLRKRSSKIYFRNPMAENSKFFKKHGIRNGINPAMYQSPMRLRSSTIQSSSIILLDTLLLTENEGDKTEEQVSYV

[5] = biological target: Delta Opioid (Homo sapiens, UniProt P41143); experiment: Radioligand binding selectivity
Chain of Delta Opioid (P41143 whole entry): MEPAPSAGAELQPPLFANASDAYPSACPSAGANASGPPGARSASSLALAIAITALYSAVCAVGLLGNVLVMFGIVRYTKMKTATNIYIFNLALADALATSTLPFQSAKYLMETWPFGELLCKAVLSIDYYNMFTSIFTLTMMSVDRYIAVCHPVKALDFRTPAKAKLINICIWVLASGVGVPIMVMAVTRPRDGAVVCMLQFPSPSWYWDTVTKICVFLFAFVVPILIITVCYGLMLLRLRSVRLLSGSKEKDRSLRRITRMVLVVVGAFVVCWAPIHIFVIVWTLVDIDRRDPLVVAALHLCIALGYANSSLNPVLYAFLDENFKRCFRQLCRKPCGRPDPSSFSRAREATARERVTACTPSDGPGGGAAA

[6] = biological target: 5-HT1B (Homo sapiens, UniProt P28222); experiment: Radioligand binding selectivity
Chain of 5-HT1B (P28222 whole entry, species assumed): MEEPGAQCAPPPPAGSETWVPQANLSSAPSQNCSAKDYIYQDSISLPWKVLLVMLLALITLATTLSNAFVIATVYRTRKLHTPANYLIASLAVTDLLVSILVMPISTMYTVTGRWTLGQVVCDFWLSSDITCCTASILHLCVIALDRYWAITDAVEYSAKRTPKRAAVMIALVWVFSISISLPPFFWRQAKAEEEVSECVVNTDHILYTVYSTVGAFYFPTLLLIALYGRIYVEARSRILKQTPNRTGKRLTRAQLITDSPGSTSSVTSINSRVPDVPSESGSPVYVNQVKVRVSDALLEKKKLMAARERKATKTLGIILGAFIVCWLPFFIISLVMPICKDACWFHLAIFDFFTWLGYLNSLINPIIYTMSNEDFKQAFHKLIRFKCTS

[7] = biological target: Muscarinic M1 (Homo sapiens, UniProt P11229); experiment: Radioligand binding selectivity
Chain of Muscarinic M1 (P11229 whole entry): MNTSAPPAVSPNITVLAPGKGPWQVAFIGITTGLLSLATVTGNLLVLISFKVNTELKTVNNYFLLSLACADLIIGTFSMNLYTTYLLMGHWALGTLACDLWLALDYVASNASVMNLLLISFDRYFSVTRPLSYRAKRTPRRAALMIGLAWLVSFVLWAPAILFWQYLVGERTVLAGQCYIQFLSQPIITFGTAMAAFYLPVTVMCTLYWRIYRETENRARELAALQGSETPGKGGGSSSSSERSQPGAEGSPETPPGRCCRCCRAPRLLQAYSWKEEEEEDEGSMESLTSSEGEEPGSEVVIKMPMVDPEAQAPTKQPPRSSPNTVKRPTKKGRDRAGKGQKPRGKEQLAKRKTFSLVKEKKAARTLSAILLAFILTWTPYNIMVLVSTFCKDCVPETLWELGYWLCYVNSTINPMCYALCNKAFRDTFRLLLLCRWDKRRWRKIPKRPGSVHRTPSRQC

[8] = biological target: Muscarinic M3 (Homo sapiens, UniProt P20309); experiment: Radioligand binding selectivity
Chain of Muscarinic M3 (P20309 whole entry): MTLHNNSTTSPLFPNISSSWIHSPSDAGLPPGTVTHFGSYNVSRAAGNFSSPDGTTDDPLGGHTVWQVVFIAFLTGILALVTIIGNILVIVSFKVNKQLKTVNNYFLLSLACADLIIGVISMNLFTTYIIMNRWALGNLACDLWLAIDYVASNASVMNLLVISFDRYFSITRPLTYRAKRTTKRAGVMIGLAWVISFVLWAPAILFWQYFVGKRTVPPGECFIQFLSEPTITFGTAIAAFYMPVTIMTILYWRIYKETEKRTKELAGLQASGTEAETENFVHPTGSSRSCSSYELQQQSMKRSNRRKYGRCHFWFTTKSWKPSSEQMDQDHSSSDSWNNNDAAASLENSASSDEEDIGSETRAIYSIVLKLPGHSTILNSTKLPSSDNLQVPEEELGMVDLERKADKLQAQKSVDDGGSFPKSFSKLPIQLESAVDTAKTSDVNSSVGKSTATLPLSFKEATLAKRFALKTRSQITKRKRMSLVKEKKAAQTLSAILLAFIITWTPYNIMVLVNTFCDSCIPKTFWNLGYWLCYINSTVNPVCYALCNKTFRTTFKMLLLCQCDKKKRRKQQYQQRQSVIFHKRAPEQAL

[9] = biological target: T1, nociceptin/ORL1 receptors (Rattus norvegicus, UniProt P35370); experiment: In vivo receptor occupancy (LC/MS/MS, RO Tracer) in hypothalamus; settings: oral 3 mg/kg dose after 6 hr.
T1 construct: rats are sacrificed by cervical dislocation and the hypothalamus is removed; from tissue; host or cells: rat hypothalamus (in vivo occupancy)
T1 sequence (P35370 whole entry): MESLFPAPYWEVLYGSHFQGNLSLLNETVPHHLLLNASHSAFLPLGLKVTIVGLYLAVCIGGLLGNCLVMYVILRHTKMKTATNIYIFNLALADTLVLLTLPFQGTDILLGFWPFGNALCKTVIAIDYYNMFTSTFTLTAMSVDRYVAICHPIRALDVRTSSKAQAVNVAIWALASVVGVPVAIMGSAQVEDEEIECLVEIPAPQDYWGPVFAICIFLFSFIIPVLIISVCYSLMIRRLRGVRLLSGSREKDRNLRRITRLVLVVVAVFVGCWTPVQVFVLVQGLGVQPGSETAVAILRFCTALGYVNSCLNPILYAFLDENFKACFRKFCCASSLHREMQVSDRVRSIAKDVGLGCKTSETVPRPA

[10] = system: wild type and ORL knockout mice; experiment: Blockade of fasting-induced hyperphagia in mice; assay type: in vivo, mouse; settings: wild type mice, oral gavage 30 min. prior to food, food intake 1 hr
Excerpt: Blockade of fasting-induced hyperphagia in rats is an accepted model for hyperphagic eating disorders. […] Mice are individually housed a minimum of 3 days prior to the onset of testing to eliminate any effects of stress due to the change from group to individual housing. Three mice/genotype are randomly assigned to each treatment group on the test day. Pre-fast body weight measurements are taken, and food is then removed from cages overnight. Mice are fasted for approximately 15 hr. The next morning, the mice are given one of three doses of drug or vehicle via oral gavage 30 min. prior to gaining access to food. Drugs are dissolved in 20% Captisol dissolved in 25 mM phosphate buffer, pH 2.0. Measurements of body weight are taken immediately prior to drug treatment or 24 hr. after access to food is restored. […] Measurements of food intake are recorded 1 hr following access to food, as indicated, by weight of food remaining at 1 hr. It should be noted that food intake measured is during the light phase, a time during which mice are typically at rest and not normally eating. Following initial testing, mice are rested for 1 week with access to unlimited chow.

[11] = biological target: T2, cloned human ORL1 receptors (Homo sapiens, UniProt P41146); experiment: [3H]-OFQ/nociceptin receptor binding assay
T2 construct: expressed in transfected cells; host or cells: CHO cells (membranes)
T2 sequence (P41146 whole entry): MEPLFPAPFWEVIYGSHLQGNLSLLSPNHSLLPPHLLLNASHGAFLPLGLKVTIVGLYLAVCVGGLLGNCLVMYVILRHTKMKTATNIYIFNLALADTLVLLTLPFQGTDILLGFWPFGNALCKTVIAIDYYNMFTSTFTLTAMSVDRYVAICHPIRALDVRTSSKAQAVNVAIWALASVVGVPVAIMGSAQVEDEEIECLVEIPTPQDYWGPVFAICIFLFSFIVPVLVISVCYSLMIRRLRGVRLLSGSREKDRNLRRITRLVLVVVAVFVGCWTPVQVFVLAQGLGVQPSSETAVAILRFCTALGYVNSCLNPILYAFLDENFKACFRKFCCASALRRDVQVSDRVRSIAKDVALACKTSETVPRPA
Procedure: Radioligand binding assays are commonly used to determine the affinity (Ki) or potency of a compound to bind to a particular receptor or target protein. A filtration-based [3H]-OFQ/nociceptin receptor binding assay is developed based on previous assay formats (Ardati A, Henningsen R A, Higelin J, Reinscheid R K, Civelli O, Monsma F J Jr. Mol. Pharmacol. 1997 May; 51(5):816-24.) with minor modifications. [3H]-OFQ/nociceptin binding assays are carried out in deep-well 96-well plates. [^3H]OFQ (final assay concentration 0.2 nM) competition studies are carried out with 5-10 μg of membrane protein (isolated from Chinese hamster ovary cells (CHO cells) expressing cloned human ORL1 receptors) in a final assay volume of 0.5 mL of buffer containing 20 mM HEPES, pH 7.4, 5 mM MgCl2, 1 mM EGTA, 100 mM NaCl, 0.1% bovine serum albumin. Samples are incubated for 60 min. at room temperature, which is found to be optimal for competition assays. The assays are terminated by filtration through glass fiber filters (Wallac filtermat A) [pretreated with 0.3% polyethylenimine (Sigma) for 1 hr] on a Tometc cell harvester, and the filters are washed three times with 5 mL of ice-cold 50 mM Tris.HCl, pH 7.4. Filtermats are then dried and imbedded with Meltilex scintillant A and the radioactivity counted in a Wallac Microbeta scintillation counter. Specific binding is determined by displacement with 100 nM unlabeled nociceptin. Curves are plotted as the percent of specific binding and IC50 values are determined using a sigmoidal dose response curve with variable slope. K, values are calculated from the IC50 by the equation of Cheng and Prusoff (Cheng, Y. C., and Prusoff, W. H., Biochem. Pharmacol. 22, 3099-3108 (1973)) where Ki=IC50×(1+D×Kd^−1)^−1. Similarly, Ki for the mu, kappa and delta opioids, serotonin, adrenergic, and muscarinic receptors may be determined using membranes expressing the desired receptor and appropriate corresponding radioligand competitor molecules.

[12] = biological target: Adenosine A3 (Homo sapiens, UniProt P0DMS8); experiment: Radioligand binding selectivity
Chain of Adenosine A3 (P0DMS8 whole entry): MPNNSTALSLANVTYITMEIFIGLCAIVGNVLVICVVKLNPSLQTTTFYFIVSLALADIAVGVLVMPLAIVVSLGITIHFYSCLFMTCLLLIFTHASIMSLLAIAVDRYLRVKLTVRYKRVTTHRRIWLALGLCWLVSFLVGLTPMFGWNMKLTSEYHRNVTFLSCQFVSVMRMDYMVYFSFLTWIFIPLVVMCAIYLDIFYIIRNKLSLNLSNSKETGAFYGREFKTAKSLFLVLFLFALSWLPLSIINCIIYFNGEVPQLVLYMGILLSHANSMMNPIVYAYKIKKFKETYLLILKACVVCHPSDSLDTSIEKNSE

## Cc1nn(-c2c(F)cccc2F)cc1CN1CCC2(CC1)OCC(F)(F)c1cc(Cl)sc12.O=C(O)C(O)C(O)C(=O)O [Example 2, 2-Chloro-1′-[[1-(2,6-difluorophenyl)-3-methyl-pyrazol-4-yl]methyl]-4,4-difluoro-spiro[5H-thieno[2,3-c]pyran-7,4′-piperidine] (L)-Tartrate]
[1]
  maximum effect, reduction in immobilization time: 56%
[1]; immobility time
  ED60: 0.023 µM
[2]
  Ki: > 5.37 µM
[3]
  Ki: > 7.89 µM
[4]
  Ki: 1.16 µM
[5]
  Ki: > 0.481 µM
[6]
  Ki: > 3.58 µM
[7]
  Ki: 1.38 µM
[8]
  Ki: > 24.2 µM
[9]
  receptor occupancy at 3 mg/kg: 76%
[10]
  fasting-induced hyperphagia: substantially block fasting-induced hyperphagia
[11]
  Ki: 0.00017 µM
[12]
  Ki: 2.3 µM
